Results on 17 molecules are retold here after patent US9133163B2, “Dihydropyrazole GPR40 modulators” (Bristol-Myers Squibb Company, priority 2012, dated 2015).

Test [1] relates to C57BL6 mice. Put plainly: Acute oral glucose tolerance test. The format is in vivo. Conditions: % change in glucose AUC (0-180 min) from vehicle, 0.3 mg/kg oral, co-administered with glucose 2 g/kg. As to the method:
Acute Oral Glucose Tolerance Test
Ten week old C57BL6 mice were housed individually and fasted for 5 hours on the day of study. Tail vein sampling was performed from nicked tails to obtain plasma samples. Baseline plasma samples were taken at t=0. Mice were orally treated with vehicle or compounds co-administered with glucose (2 g/kg). Sampling thereafter from tails of treated mice at 20, 40, 60, 120 and 180 min provided data used for generating glucose excursion curves from which 0-180 min blood glucose excursion profiles were generated. The area under the curve (AUC) allowed for assessment of glucose lowering by compound treatments. Blood samples were collected in EDTA-treated tubes (MICROVETTE® CB300, Sarstedt, Numbrecht, Germany), stored on ice and spun @ 6000 rpm for 10 minutes. Plasma glucose was analyzed on the same day using an AU680 Clinical Chemistry Analyzer (Beckman Coulter, Brea, Calif.). Statistical analysis is a one way ANOVA with Dunnett's post hoc test or two-way student's t test where appropriate. P values less than 0.05 were considered statistically significant.

The target of test [2] is T1, hGPR40 (Homo sapiens, UniProt O14842). Put plainly: FDSS-based intracellular calcium assay. Conditions: intracellular Ca2+ response, cells expressing GPR40. The arrangement: 3xFLAG; expressed in transfected cells. It counts as cell-based. As to the method: FDSS-Based Intracellular Calcium Assay
T1 sequence (O14842 whole entry): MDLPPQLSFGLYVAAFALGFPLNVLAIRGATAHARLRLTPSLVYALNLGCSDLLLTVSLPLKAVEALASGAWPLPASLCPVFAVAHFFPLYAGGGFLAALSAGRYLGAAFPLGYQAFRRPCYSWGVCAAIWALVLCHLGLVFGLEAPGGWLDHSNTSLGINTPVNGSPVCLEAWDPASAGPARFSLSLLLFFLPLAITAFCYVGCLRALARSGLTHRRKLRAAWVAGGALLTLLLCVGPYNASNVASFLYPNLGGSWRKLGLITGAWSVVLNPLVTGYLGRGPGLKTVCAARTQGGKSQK
Compounds are dissolved in DMSO and diluted to desired concentrations with assay buffer and added to the cells as 3× solution (20 μL per well). Run fluorescence/luminescence reader FDSS (Hamamatsu) to read intracellular Ca^2+ response.
(In general: Calcium flux is commonly read through the fluorescence of an indicator in the cells.)

Test [3] addresses T1, hGPR40. Put plainly: GPR40 IP-One HTRF assay in HEK293/GPR40 inducible cell lines. The arrangement: expressed in transfected cells. It counts as cell-based. The following applies: HEK293 cells with tetracycline-inducible human GPR40; read-out: hGPR40 IP1 EC50. Here is the method: GPR40 IP-One HTRF Assays in HEK293/GPR40 Inducible Cell Lines
Human, mouse and rat GPR40-mediated intracellular IP-One HTRF assays were established using human embryonic kidney HEK293 cells stably transfected with a tetracycline-inducible human, mouse or rat GPR40 receptor. Cells were routinely cultured in growth medium containing DMEM (Gibco Cat. #12430-047), 10% qualified FBS (Sigma, Cat. #F2442), 200 μg/ml hygromycin (Invitrogen, Cat. #16087-010) and 1.5 μg/ml blasticidin (Invitrogen, Cat. #R210-01). About 12-15 million cells were passed into a T175 tissue culture flask (BD FALCON® 353112) with growth medium and incubated for 16-18 hours (overnight) at 370 C with 5% CO2. The next day, assay medium was exchanged with growth medium containing 1000 ng/mL of tetracycline (Fluka Analytical, Cat. #87128) to induce GPR40 expression for 18-24 hours at […] incubator with 5% CO2. After induction, the cells were washed with PBS (Gibco, Cat. #14190-036) and detached with Cell Stripper (CELLGRO®, Cat. #25-056-CL). 10-20 mL growth medium were added to the flask and cells were collected in 50 mL tubes (FALCON®, Cat. #352098) and spun at 1000 RPM for 5 minutes. Culture medium was aspirated and the cells were resuspended in 10 mL of 1× IP-One Stimulation Buffer from the Cisbio IP-One kit (Cisbio, Cat. #62IPAPEJ). The cells were diluted to 1.4×10^6 cells/mL in Stimulation Buffer.
Test compounds were 3-fold, 11-point serially diluted in DMSO in a REMP assay plate (Matrix Cat. #4307) by BIOCEL® (Agilent). The compounds were transferred into an Echo plate (LABCYTE, Cat. #LP-0200) and […] of diluted compounds were transferred to an assay plate (proxi-plate from Perkin Elmer, Cat. #6008289) by Echo acoustic nano dispenser (LABCYTE, model ECHO550). 14 μL of the diluted cells were then added to the assay plate by Thermo (SN 836 330) CombiDrop and incubated at room temperature for 45 minutes. Then 3 μL of IP1 coupled to dye D2 from the Cisbio IP-One kit were added to the assay plate followed by 3 μL of Lumi4TM-Tb cryptate K from the kit. The plate was further incubated at room for 1 hour before reading on the Envision (Perkin Elmer Model2101) with an HTRF protocol. Activation data for the test compound over a range of concentrations was plotted as percentage activation of the test compound (100%=maximum response). After correcting for background [(sample read-mean of low control)/(mean of high control−mean of low control)](low control is DMSO without any compound), EC50 values were determined. The EC50 is defined as the concentration of test compound which produces 50% of the maximal response and was quantified using the 4 parameter logistic equation to fit the data.
In general terms: Time-resolved FRET reads energy transfer from a long-lived donor to a nearby acceptor.

The EC50 is the midpoint of the concentration-response curve. Consider `CCOc1ccc(F)c(N2CCC(Oc3ccc(N4N=C(C(F)(F)F)[C@@H](C)[C@@H]4CC(=O)O)cc3)C(CC)C2)c1` (single isomer, unassigned) [Example 25 (Isomer 2)], for which, in test [1], the “Acute oral glucose tolerance” value is listed as −38%. Moreover, the values for the EC50 in test [2] and in test [3] were 113 nM and 21 nM, respectively.

As for `CCOc1ccc(F)c(N2CCC(Oc3ccc(N4N=C(C(F)(F)F)[C@@H](C)[C@@H]4CC(=O)O)cc3)C(CC(C)C)C2)c1` (single isomer, unassigned) [Example 27 (Isomer 1)], the EC50 in test [2] was 412 nM; in test [3] it was 90 nM.

Turning to `CCOc1ccc(F)c(N2CCC(Oc3ccc(N4N=C(C(F)(F)F)[C@@H](C)[C@@H]4CC(=O)O)cc3)C(CC(C)C)C2)c1` (single isomer, unassigned) [Example 27 (Isomer 2)], the EC50 worked out at 34 nM in test [2] and 84 nM in test [3].

Regarding `COc1ccc(F)c(N2CCC(Oc3ccc(N4N=C(C(F)(F)F)[C@@H](C)[C@@H]4CC(=O)O)cc3)C(F)C2)c1` (single isomer, unassigned) [Example 57 (Isomer 4)], the results for the EC50 in test [2] and in test [3] were 66 nM and 11 nM, respectively.

Take `COc1cc(N2CC[C@@H](Oc3ccc(N4N=C(C(F)(F)F)[C@@H](C)[C@@H]4CC(=O)O)cc3)[C@H](C)C2)c(Cl)cn1` (single isomer, unassigned) [Example 81, Isomer 2 (neutral form)]: the “Acute oral glucose tolerance” value in test [1] is given as −54%. Further, the EC50 in test [2] came to 71 nM; in test [3], 9 nM.

In the case of `CC[C@@H]1C(C(F)(F)F)=NN(c2ccc(OC3CCN(c4cc(OC)ccc4F)CC3)cc2)[C@H]1CC(=O)O` (single isomer, unassigned) [Example 88, Isomer 1], the values for the EC50 in test [2] and in test [3] were 78 nM and 18 nM, respectively.

On to `COc1ccc(F)c(N2CCC(Oc3ccc(N4N=C(C(F)(F)F)[C@@H](C)[C@@H]4CC(=O)O)cc3)CC2)c1` [Example 1, 2-((4S,5S)-1-(4-((1-(2-Fluoro-5-methoxyphenyl)piperidin-4-yl)oxy)phenyl)-4-methyl-3-(trifluoromethyl)-4,5-dihydro-1H-pyrazol-5-yl)acetic acid], for which the “Acute oral glucose tolerance” value in test [1] is listed as −47%. Besides, the EC50 in test [2] worked out at 114 nM; in test [3], 17 nM.

For the molecule `CC(C)Oc1ccc(F)c(N2CCC(Oc3ccc(N4N=C(C(F)(F)F)[C@@H](C)[C@@H]4CC(=O)O)cc3)C(C)C2)c1` (stereo partly drawn) [Example 12, 2-((4S,5S)-1-(4-((1-(2-Fluoro-5-isopropoxyphenyl)-3-methylpiperidin-4-yl)oxy)phenyl)-4-methyl-3-(trifluoromethyl)-4,5-dihydro-1H-pyrazol-5-yl)acetic acid], the EC50 in test [2] amounted to 311 nM; in test [3], 253 nM.

In the case of `COc1cc(F)c(F)c(N2CCC(Oc3ccc(N4N=C(C(F)(F)F)[C@@H](C)[C@@H]4CC(=O)O)cc3)CC2)c1` [Example 16, 2-((4S,5S)-1-(4-((1-(2,3-Difluoro-5-methoxyphenyl)piperidin-4-yl)oxy)phenyl)-4-methyl-3-(trifluoromethyl)-4,5-dihydro-1H-pyrazol-5-yl)acetic acid], the EC50 in test [2] amounted to 273 nM; in test [3], 133 nM.

Take `CCOc1cc(F)c(F)c(N2CCC(Oc3ccc(N4N=C(C(F)(F)F)[C@@H](C)[C@@H]4CC(=O)O)cc3)CC2)c1` [Example 17, 2-((4S,5S)-1-(4-((1-(5-Ethoxy-2,3-difluorophenyl)piperidin-4-yl)oxy)phenyl)-4-methyl-3-(trifluoromethyl)-4,5-dihydro-1H-pyrazol-5-yl)acetic acid]: the EC50 in test [2] is 286 nM; in test [3], 294 nM.

With `Cc1ccc(F)c(N2CCC(Oc3ccc(N4N=C(C(F)(F)F)[C@@H](C)[C@@H]4CC(=O)O)cc3)CC2)c1` [Example 36, 2-((4S,5S)-1-(4-((1-(2-Fluoro-5-methylphenyl)piperidin-4-yl)oxy)phenyl)-4-methyl-3-(trifluoromethyl)-4,5-dihydro-1H-pyrazol-5-yl)acetic acid], the values for the EC50 in test [2] and in test [3] were 440 nM and 86 nM, respectively.

Turning to `COc1cccc(N2CCC(Oc3ccc(N4N=C(C(F)(F)F)[C@@H](C)[C@@H]4CC(=O)O)cc3)CC2)c1` [Example 40, 2-((4S,5S)-1-(4-((1-(3-Methoxyphenyl)piperidin-4-yl)oxy)phenyl)-4-methyl-3-(trifluoromethyl)-4,5-dihydro-1H-pyrazol-5-yl)acetic acid], the EC50 in test [2] is 620 nM; in test [3] it was 107 nM.

Consider `CCc1ccc(F)c(N2CCC(Oc3ccc(N4N=C(C(F)(F)F)[C@@H](C)[C@@H]4CC(=O)O)cc3)CC2)c1` [Example 65, 2-((4S,5S)-1-(4-((1-(5-Ethyl-2-fluorophenyl)piperidin-4-yl)oxy)phenyl)-4-methyl-3-(trifluoromethyl)-4,5-dihydro-1H-pyrazol-5-yl)acetic acid], for which the EC50 in test [2] worked out at 583 nM; in test [3] it was 297 nM.

Turning to `CCc1cccc(N2CCC(Oc3ccc(N4N=C(C(F)(F)F)[C@@H](C)[C@@H]4CC(=O)O)cc3)CC2)c1` [Example 71, 2-((4S,5S)-1-(4-((1-(3-Ethylphenyl)piperidin-4-yl)oxy)phenyl)-4-methyl-3-(trifluoromethyl)-4,5-dihydro-1H-pyrazol-5-yl)acetic acid], the EC50 in test [2] stood at 1180 nM; in test [3] it was 224 nM.

As for `COc1cc(N2CCC(Oc3ccc(N4N=C(C(F)(F)F)[C@@H](C)[C@@H]4CC(=O)O)cc3)CC2)c(F)cn1` [Example 79, 2-((4S,5S)-1-(4-((1-(5-Fluoro-2-methoxypyridin-4-yl)piperidin-4-yl)oxy)phenyl)-4-methyl-3-(trifluoromethyl)-4,5-dihydro-1H-pyrazol-5-yl)acetic acid], the results for the EC50 in test [2] and in test [3] were 163 nM and 94 nM, respectively.

As for `[2H]C([2H])([2H])Oc1cc(N2CC[C@@H](Oc3ccc(N4N=C(C(F)(F)F)[C@@H](C)[C@@H]4CC(=O)O)cc3)[C@H](C)C2)c(Cl)cn1` [Example 87, 2-((4S,5S)-1-(4-(((3R,4R)-1-(5-Chloro-2-d3-methoxypyridin-4-yl)-3-methylpiperidin-4-yl)oxy)phenyl)-4-methyl-3-(trifluoromethyl)-4,5-dihydro-1H-pyrazol-5-yl)acetic acid], the values for the EC50 in test [2] and in test [3] were 74 nM and 6 nM, respectively.

As to `CCOc1ccc(F)c(N2CC[C@@H](Oc3ccc(N4N=C(c5ccc(C#N)cc5)[C@@H](CC)[C@@H]4CC(=O)O)cc3)[C@H](C)C2)c1` [Example 99, 2-((4S,5S)-3-(4-Cyanophenyl)-1-(4-(((3R,4R)-1-(5-ethoxy-2-fluorophenyl)-3-methylpiperidin-4-yl)oxy)phenyl)-4-ethyl-4,5-dihydro-1H-pyrazol-5-yl)acetic acid], the EC50 was 25 nM in test [2] and 20 nM in test [3].
